Reference: US9248217B2, “Nanoparticle coating of surfaces” (Nanocopocia, LLC, priority 2006, dated 2016)

Tests used:
[1] = SEM imaging of drug particles on hydrogel; format: physicochemical; conditions: SEM at 20,000x magnification
Procedure: For initial feasibility spray examples, griseofulvin (0.09023 g), a poorly water soluble antifungal agent, was dissolved in a mixture of ethanol (9 ml) and acetone (6 ml). A hydrogel sample, approximately 5 mm in largest diameter, removed from a borate buffer solution and placed on a metallic spray platform beneath the ElectroNanospray device's dual capillary spray head. The solution was sprayed in the cone jet mode at 4.17 kV at 5 μl/min and a distance of 15.6 mm from the hydrogel. Spray time was 20 minutes. The surface pattern seen in the SEM image shown in FIGS. 39A and 39B show a uniform, closely packed surface of approximately 200 nm particles at 20,000× magnification.

[2] = HPLC retention time of eluted peptide before and after ElectroNanospray (structural integrity); format: physicochemical; conditions: sprayed in aqueous solution onto stents and stainless steel plates
Procedure: General HPLC methods to quantify dexamethasone (DXM) and three peptides (luteinizing hormone releasing hormone (human; LHRH), angiotensin I, and insulin chain B) were developed using an HP 1090 system equipped with a narrowbore column (Zorbax SB C-18, 2.1 mm i.d.×150 mm, 3.5 μm) and UV detector. Data integration and processing were performed with Agilent ChemStation software (Rev. A.08.03). Peak areas were obtained by subtracting the baseline (from a “blank” injection of the sample matrix) from the experimental chromatogram. DXM was analyzed with the following method: 20/80 to 100/0 to 20/80 acetonitrile/water in 3 min and 3.01 min at 0.6 mL/min, end run at 6 min; 65° C.; 10 μL injection volume. DXM, which was detected at 243 nm, eluted at 2.27 min. The calibration curve for DXM (obtained from Alexis Biochemicals) generated with seven standard concentrations ranging from 0.5 to 30 μg/ml in acetonitrile was adequately linear (R^2=0.9999) and the limit of quantification (LOQ) was 0.5 μg/ml. The peptides (all obtained from Sigma-Aldrich) were analyzed with the following method: 20/80 to 50/50 to 20/80 acetonitrile/water buffered with 0.1% (v/v) perchloric acid in 5 min and 5.01 min at 0.4 mL/min, end run at 9 min; 65° C.; 10 μL injection volume; 210 nm detection wavelength. The retention of the peptides was measured before and after the ElectroNanospray process described earlier. LHRH eluted at 2.61 min, angiotensin I eluted at 3.54 min, and insulin B chain eluted at 4.71 min. Calibration curves for the peptides were obtained using five standard concentrations ranging from 1.25 to 50 μg/ml in a solution of 10 mM perchloric acid in water. The LOD for LHRH, angiotensin I and insulin chain B were 0.19, 0.25 and 0.34 μg/ml, respectively. System suitability and injection reproducibility tests were satisfactory.
We identified and sourced three readily available peptides of varying chain length, LHRH, angiotensin I, and insulin B chain. These were sprayed in aqueous solution onto both stents and stainless steel plates. […]

| Compound | particle size on hydrogel surface [1] | HPLC retention time after spraying compared to before spraying [2] |
| --- | --- | --- |
| COC1=CC(=O)C[C@@H](C)[C@]12Oc1c(Cl)c(OC)cc(OC)c1C2=O [griseofulvin] | approximately 200 nm |  |
| Luteinizing hormone releasing hormone [LHRH] |  | unchanged |
| angiotensin I (DRVYIHPFHL; Angiotensin-1; UniProt P01019 25-34, looked up) [model peptide obtained from Sigma-Aldrich] |  | unchanged |
| insulin B chain |  | unchanged |
